Measured values reported in US9340590B2 (priority 2011, dated 2016).
Positions of bridges follow the written chain, without caps; N, C: chain ends. Non-standard residues stand in square brackets, D forms with d. Residues, ends and D or L forms follow the SMILES beside them. Trp(1-Me) = Cn1cc(C[C@H](N)C(=O)O)c2ccccc21

What was measured:
[1] = target: hNav1.5 (Homo sapiens, UniProt Q14524); test: cell-based
[2] = target: hNav1.7 (Homo sapiens, UniProt Q15858); test: cell-based; settings: Nav1.7 Use IC50
Chain of hNav1.7 (Q15858 whole entry, looked up): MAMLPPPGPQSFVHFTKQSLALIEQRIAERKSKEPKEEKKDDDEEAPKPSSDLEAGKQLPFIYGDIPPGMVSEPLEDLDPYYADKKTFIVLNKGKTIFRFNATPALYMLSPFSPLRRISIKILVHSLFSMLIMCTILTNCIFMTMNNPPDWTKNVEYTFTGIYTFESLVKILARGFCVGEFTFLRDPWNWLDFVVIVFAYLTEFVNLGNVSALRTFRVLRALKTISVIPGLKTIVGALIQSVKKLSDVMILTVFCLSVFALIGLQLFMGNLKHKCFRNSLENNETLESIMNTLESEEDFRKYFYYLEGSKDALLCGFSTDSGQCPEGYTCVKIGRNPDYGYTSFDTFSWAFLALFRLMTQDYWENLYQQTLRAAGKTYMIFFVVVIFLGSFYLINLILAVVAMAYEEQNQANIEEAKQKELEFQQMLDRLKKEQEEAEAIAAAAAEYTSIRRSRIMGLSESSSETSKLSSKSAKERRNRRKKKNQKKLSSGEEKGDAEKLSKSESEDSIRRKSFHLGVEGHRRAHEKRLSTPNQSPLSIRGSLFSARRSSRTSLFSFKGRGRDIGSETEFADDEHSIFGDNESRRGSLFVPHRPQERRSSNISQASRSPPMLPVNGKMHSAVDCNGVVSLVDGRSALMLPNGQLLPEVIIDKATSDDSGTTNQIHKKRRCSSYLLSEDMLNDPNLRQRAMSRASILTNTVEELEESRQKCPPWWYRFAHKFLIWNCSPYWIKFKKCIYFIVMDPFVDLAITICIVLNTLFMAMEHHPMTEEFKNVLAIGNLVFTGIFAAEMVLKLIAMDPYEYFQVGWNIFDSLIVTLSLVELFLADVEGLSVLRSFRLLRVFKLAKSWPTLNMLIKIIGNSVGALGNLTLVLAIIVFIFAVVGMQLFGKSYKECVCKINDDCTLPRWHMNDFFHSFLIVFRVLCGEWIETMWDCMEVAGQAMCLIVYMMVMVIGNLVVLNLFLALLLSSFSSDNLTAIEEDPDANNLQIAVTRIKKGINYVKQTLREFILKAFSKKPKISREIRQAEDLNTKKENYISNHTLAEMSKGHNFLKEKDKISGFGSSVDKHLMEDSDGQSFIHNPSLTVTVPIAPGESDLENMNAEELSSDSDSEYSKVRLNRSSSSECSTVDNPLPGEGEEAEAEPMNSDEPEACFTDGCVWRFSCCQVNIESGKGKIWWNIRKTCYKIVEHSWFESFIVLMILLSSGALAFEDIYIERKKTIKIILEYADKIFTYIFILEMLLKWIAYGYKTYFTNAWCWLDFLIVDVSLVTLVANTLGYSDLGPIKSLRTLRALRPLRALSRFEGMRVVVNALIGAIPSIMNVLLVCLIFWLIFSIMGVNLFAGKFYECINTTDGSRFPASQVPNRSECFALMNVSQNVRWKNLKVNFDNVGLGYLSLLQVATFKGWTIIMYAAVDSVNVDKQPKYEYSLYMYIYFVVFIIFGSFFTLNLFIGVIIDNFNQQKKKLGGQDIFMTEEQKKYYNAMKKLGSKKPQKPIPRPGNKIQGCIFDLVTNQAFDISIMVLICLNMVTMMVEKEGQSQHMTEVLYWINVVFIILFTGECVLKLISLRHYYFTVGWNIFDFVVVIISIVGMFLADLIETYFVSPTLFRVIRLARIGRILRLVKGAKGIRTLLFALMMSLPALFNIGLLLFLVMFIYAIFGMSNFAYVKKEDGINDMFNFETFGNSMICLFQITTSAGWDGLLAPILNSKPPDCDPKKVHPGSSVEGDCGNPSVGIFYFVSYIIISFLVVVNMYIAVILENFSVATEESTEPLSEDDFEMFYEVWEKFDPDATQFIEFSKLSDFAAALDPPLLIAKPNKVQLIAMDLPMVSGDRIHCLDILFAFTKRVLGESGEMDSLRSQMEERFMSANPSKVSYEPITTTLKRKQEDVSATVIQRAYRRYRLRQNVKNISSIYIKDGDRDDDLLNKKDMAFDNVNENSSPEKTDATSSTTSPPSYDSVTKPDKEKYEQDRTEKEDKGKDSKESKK

Chain of hNav1.5 (Q14524 whole entry, looked up): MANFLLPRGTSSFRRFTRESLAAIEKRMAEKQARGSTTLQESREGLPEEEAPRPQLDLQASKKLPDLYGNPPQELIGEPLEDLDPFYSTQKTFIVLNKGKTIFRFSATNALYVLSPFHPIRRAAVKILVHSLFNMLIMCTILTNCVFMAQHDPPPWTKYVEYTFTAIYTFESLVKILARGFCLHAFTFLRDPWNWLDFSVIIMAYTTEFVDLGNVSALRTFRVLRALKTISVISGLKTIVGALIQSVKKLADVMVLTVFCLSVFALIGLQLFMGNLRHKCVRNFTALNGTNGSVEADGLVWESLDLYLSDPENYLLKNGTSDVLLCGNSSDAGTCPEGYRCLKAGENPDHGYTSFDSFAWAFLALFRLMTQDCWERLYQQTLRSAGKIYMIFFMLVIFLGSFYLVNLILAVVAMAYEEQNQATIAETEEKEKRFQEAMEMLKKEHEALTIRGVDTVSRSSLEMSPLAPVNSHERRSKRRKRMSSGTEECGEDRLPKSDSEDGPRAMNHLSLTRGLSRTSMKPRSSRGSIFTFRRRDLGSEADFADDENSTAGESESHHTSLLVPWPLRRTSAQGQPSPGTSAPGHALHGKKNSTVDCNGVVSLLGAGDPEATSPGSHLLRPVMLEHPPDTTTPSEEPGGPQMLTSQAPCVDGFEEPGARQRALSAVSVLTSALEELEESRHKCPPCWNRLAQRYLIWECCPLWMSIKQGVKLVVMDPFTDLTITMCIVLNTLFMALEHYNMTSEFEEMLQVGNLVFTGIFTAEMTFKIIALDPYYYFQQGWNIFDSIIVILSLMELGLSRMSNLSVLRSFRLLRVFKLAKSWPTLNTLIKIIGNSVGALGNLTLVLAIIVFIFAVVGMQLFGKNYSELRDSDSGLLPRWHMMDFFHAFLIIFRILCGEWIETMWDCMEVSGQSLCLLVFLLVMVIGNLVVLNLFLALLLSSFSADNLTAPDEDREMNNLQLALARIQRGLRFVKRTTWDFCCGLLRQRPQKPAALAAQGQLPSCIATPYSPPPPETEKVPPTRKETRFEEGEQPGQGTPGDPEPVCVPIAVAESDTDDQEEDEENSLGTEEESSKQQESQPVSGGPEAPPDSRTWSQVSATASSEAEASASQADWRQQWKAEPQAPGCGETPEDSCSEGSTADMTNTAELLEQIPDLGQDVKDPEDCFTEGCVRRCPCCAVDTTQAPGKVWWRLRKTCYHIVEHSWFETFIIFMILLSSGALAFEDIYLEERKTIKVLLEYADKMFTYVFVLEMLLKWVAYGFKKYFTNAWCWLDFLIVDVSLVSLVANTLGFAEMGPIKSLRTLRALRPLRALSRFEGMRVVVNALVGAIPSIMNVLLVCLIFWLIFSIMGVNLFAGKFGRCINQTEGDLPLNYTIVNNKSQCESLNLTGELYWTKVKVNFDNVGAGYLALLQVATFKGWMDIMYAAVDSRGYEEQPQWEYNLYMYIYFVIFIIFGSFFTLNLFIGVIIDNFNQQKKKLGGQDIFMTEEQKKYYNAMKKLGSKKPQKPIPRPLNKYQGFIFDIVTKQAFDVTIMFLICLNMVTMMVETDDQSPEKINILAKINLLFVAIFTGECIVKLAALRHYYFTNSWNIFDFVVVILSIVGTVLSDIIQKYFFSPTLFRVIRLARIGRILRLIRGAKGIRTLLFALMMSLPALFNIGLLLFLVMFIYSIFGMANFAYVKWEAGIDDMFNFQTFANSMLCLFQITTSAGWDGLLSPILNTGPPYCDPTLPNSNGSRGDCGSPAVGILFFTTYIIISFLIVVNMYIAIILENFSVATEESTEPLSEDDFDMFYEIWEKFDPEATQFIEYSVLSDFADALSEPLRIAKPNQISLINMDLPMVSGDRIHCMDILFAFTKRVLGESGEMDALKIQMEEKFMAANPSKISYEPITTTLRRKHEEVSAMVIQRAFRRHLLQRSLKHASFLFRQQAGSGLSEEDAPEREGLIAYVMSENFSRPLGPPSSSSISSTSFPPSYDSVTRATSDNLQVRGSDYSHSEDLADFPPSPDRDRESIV

Row | Structure (SMILES) | IC50 [1] [nM] | IC50 [2] [nM]
1 | CC[C@H](C)[C@@H]1NC(=O)[C@@H]2CSSC[C@@H]3NC(=O)[C@H](C(C)C)NC(=O)[C@H](CC(C)C)NC(=O)[C@H](CC(N)=O)NC(=O)[C@@H]4CCCN4C(=O)[C@H](CCCCN)NC(=O)[C@H](CSSC[C@H](NC(=O)[C@@H](N)CC(=O)O)C(=O)N[C@@H](CC(C)C)C(=O)NCC(=O)N[C@@H](Cc4ccccc4)C(=O)N[C@@H](CCSC)C(=O)N[C@@H](CCCNC(=N)N)C(=O)N[C@@H](CCCCN)C(=O)N2)NC(=O)[C@H](CSSC[C@@H](C(=O)N[C@@H](CCCCN)C(=O)N[C@@H](Cc2ccc(O)cc2)C(=O)N[C@H](C(=O)N[C@@H](Cc2ccccc2)C(N)=O)C(C)C)NC(=O)[C@H](Cc2c[nH]c4ccccc24)NC(=O)[C@H](CCCCN)NC(=O)[C@H](Cc2cnc[nH]2)NC(=O)[C@H]([C@@H](C)O)NC(=O)[C@H](CCCNC(=N)N)NC(=O)[C@H](CO)NC3=O)NC(=O)[C@H](CCCCN)NC(=O)[C@H](CC(=O)O)NC(=O)[C@H](CC(N)=O)NC(=O)[C@H](CC(=O)O)NC(=O)[C@@H]2CCCN2C1=O [[Lys18]GpTx-1(1-34)] (H-DCLGFMRKCIPDNDKCCKPNLVCSRTHKWCKYVF-NH2; disulfide 2-17, 9-23, 16-30) | 16400 | 2
2 | CC[C@H](C)[C@@H]1NC(=O)[C@@H]2CSSC[C@@H]3NC(=O)[C@H](C(C)C)NC(=O)[C@H](CC(C)C)NC(=O)[C@H](CC(N)=O)NC(=O)[C@H](CCCCN)NC(=O)[C@H](CCCNC(=N)N)NC(=O)[C@H](CSSC[C@H](NC(=O)[C@@H](N)CC(=O)O)C(=O)N[C@@H](CC(C)C)C(=O)NCC(=O)N[C@@H](Cc4ccccc4)C(=O)N[C@@H](CCSC)C(=O)N[C@@H](CCCNC(=N)N)C(=O)N[C@@H](CCCCN)C(=O)N2)NC(=O)[C@H](CSSC[C@@H](C(=O)N[C@@H](CCCCN)C(=O)N[C@@H](Cc2ccc(O)cc2)C(=O)N[C@H](C(=O)N[C@@H](Cc2ccccc2)C(N)=O)C(C)C)NC(=O)[C@H](Cc2c[nH]c4ccccc24)NC(=O)[C@H](CCCCN)NC(=O)[C@H](Cc2cnc[nH]2)NC(=O)[C@H]([C@@H](C)O)NC(=O)[C@H](CCCNC(=N)N)NC(=O)[C@H](CO)NC3=O)NC(=O)[C@H](CCCCN)NC(=O)[C@H](CC(=O)O)NC(=O)[C@H](CC(N)=O)NC(=O)[C@H](CC(=O)O)NC(=O)[C@@H]2CCCN2C1=O [[Lys19]GpTx-1(1-34)] (H-DCLGFMRKCIPDNDKCCRKNLVCSRTHKWCKYVF-NH2; disulfide 2-17, 9-23, 16-30) | 9100 | 3
3 | CC[C@H](C)[C@@H]1NC(=O)[C@@H]2CSSC[C@@H]3NC(=O)[C@H](C(C)C)NC(=O)[C@H](CC(C)C)NC(=O)[C@H](CC(N)=O)NC(=O)[C@@H]4CCCN4C(=O)[C@H](CCCNC(=N)N)NC(=O)[C@H](CSSC[C@H](NC(=O)[C@@H](N)CC(=O)O)C(=O)N[C@@H](CC(C)C)C(=O)NCC(=O)N[C@@H](CCSC)C(=O)N[C@@H](CCSC)C(=O)N[C@@H](CCCNC(=N)N)C(=O)N[C@@H](CCCCN)C(=O)N2)NC(=O)[C@H](CSSC[C@@H](C(=O)N[C@@H](CCCCN)C(=O)N[C@@H](Cc2cn(C)c4ccccc24)C(=O)N[C@H](C(=O)N[C@@H](Cc2ccccc2)C(N)=O)C(C)C)NC(=O)[C@H](Cc2c[nH]c4ccccc24)NC(=O)[C@H](CCCCN)NC(=O)[C@H](Cc2c[nH]cn2)NC(=O)[C@H]([C@@H](C)O)NC(=O)[C@H](CCCNC(=N)N)NC(=O)[C@H](CO)NC3=O)NC(=O)[C@H](CCCCN)NC(=O)[C@H](CC(=O)O)NC(=O)[C@H](CC(N)=O)NC(=O)[C@H](CC(=O)O)NC(=O)[C@@H]2CCCN2C1=O [[Met5;1′NMeW32]GpTx-1(1-34)] (H-DCLGMMRKCIPDNDKCCRPNLVCSRTHKWCK[Trp(1-Me)]VF-NH2; disulfide 2-17, 9-23, 16-30) | 14800 | 7
4 | CC[C@H](C)[C@@H]1NC(=O)[C@@H]2CSSC[C@@H]3NC(=O)[C@H](C(C)C)NC(=O)[C@H](CC(C)C)NC(=O)[C@H](CC(N)=O)NC(=O)[C@@H]4CCCN4C(=O)[C@H](CCCNC(=N)N)NC(=O)[C@H](CSSC[C@H](NC(=O)[C@@H](N)CC(=O)O)C(=O)N[C@@H](CC(C)C)C(=O)NCC(=O)N[C@@H](CCSC)C(=O)N[C@@H](CC(C)C)C(=O)N[C@@H](CCCNC(=N)N)C(=O)N[C@@H](CCCCN)C(=O)N2)NC(=O)[C@H](CSSC[C@@H](C(=O)N[C@@H](CCCCN)C(=O)N[C@@H](Cc2ccc(O)cc2)C(=O)N[C@H](C(=O)N[C@@H](Cc2ccccc2)C(N)=O)C(C)C)NC(=O)[C@H](Cc2c[nH]c4ccccc24)NC(=O)[C@H](CCCCN)NC(=O)[C@H](Cc2c[nH]cn2)NC(=O)[C@H]([C@@H](C)O)NC(=O)[C@H](CCCNC(=N)N)NC(=O)[C@H](CO)NC3=O)NC(=O)[C@H](CCCCN)NC(=O)[C@H](CC(=O)O)NC(=O)[C@H](CC(N)=O)NC(=O)[C@H](CC(=O)O)NC(=O)[C@@H]2CCCN2C1=O [[Met5;Leu6]GpTx-1(1-34)] (H-DCLGMLRKCIPDNDKCCRPNLVCSRTHKWCKYVF-NH2; disulfide 2-17, 9-23, 16-30) | > 10000 | 270
5 | CC[C@H](C)[C@@H]1NC(=O)[C@@H]2CSSC[C@@H]3NC(=O)[C@H](C(C)C)NC(=O)[C@H](CC(C)C)NC(=O)[C@H](CC(N)=O)NC(=O)[C@@H]4CCCN4C(=O)[C@H](CCCNC(=N)N)NC(=O)[C@H](CSSC[C@H](NC(=O)[C@@H](N)CC(=O)O)C(=O)N[C@@H](CC(C)C)C(=O)NCC(=O)N(C)[C@@H](CC(C)C)C(=O)N[C@@H](CC(C)C)C(=O)N[C@@H](CCCNC(=N)N)C(=O)N[C@@H](CCCCN)C(=O)N2)NC(=O)[C@H](CSSC[C@@H](C(=O)N[C@@H](CCCCN)C(=O)N[C@@H](Cc2ccc(O)cc2)C(=O)N[C@H](C(=O)N[C@@H](Cc2ccccc2)C(N)=O)C(C)C)NC(=O)[C@H](Cc2c[nH]c4ccccc24)NC(=O)[C@H](CCCCN)NC(=O)[C@H](Cc2c[nH]cn2)NC(=O)[C@H]([C@@H](C)O)NC(=O)[C@H](CCCNC(=N)N)NC(=O)[C@H](CO)NC3=O)NC(=O)[C@H](CCCCN)NC(=O)[C@H](CC(=O)O)NC(=O)[C@H](CC(N)=O)NC(=O)[C@H](CC(=O)O)NC(=O)[C@@H]2CCCN2C1=O [[NMeLeu5;Leu6]GpTx-1(1-34)] | > 10000 | 12
6 | CC[C@H](C)[C@@H]1NC(=O)[C@@H]2CSSC[C@@H]3NC(=O)[C@H](C(C)C)NC(=O)[C@H](CC(C)C)NC(=O)[C@H](CC(N)=O)NC(=O)[C@@H]4CCCN4C(=O)[C@H](CCCNC(=N)N)NC(=O)[C@H](CSSC[C@H](NC(=O)[C@@H](N)CC(=O)O)C(=O)N[C@@H](CC(C)C)C(=O)NCC(=O)N(C)[C@@H](Cc4ccccc4)C(=O)N[C@@H](CC(C)C)C(=O)N[C@@H](CCCNC(=N)N)C(=O)N[C@@H](CCCCN)C(=O)N2)NC(=O)[C@H](CSSC[C@@H](C(=O)N[C@@H](CCCCN)C(=O)N[C@@H](Cc2ccc(O)cc2)C(=O)N[C@H](C(=O)N[C@@H](Cc2ccccc2)C(N)=O)C(C)C)NC(=O)[C@H](Cc2c[nH]c4ccccc24)NC(=O)[C@H](CCCCN)NC(=O)[C@H](Cc2c[nH]cn2)NC(=O)[C@H]([C@@H](C)O)NC(=O)[C@H](CCCNC(=N)N)NC(=O)[C@H](CO)NC3=O)NC(=O)[C@H](CCCCN)NC(=O)[C@H](CC(=O)O)NC(=O)[C@H](CC(N)=O)NC(=O)[C@H](CC(=O)O)NC(=O)[C@@H]2CCCN2C1=O [[NMePhe5;Leu6]GpTx-1(1-34)] | 11300 | 12
